Reference: ChEMBL document CHEMBL2380302, “Synthesis of 3-O-propargylated betulinic acid and its 1,2,3-triazoles as potential apoptotic agents” (Eur J Med Chem, 2013)

How the values were obtained:
DU-145 [1] = assay: Cytotoxicity against human DU145 cells after 48 hrs by SRB assay; format: functional, cell-based; conditions: DU-145, 48 h
HL-60 [2] = assay: Cytotoxicity against human HL60 cells at 10 uM after 48 hrs by SRB assay; format: functional; conditions: HL-60, 48 h, read-out: GI
DU-145 [3] = assay: Cytotoxicity against human DU145 cells at 10 uM after 48 hrs by SRB assay; format: functional; conditions: DU-145, 48 h, read-out: GI
MCF7 [4] = assay: Cytotoxicity against human MCF7 cells at 10 uM after 48 hrs by SRB assay; format: functional; conditions: MCF7, 48 h, read-out: GI
HL-60 [5] = assay: Cytotoxicity against human HL60 cells at 30 uM after 48 hrs by SRB assay; format: functional; conditions: HL-60, 48 h, read-out: GI
HEp-2 [6] = assay: Cytotoxicity against human Hep2 cells after 48 hrs by SRB assay; format: functional, cell-based; conditions: HEp-2, 48 h
HEp-2 [7] = assay: Cytotoxicity against human Hep2 cells at 10 uM after 48 hrs by SRB assay; format: functional; conditions: HEp-2, 48 h, read-out: GI
HCT-15 [8] = assay: Cytotoxicity against human HCT15 cells after 48 hrs by SRB assay; format: functional, cell-based; conditions: HCT-15, 48 h
MCF7 [9] = assay: Cytotoxicity against human MCF7 cells after 48 hrs by SRB assay; format: functional, cell-based; conditions: MCF7, 48 h
THP-1 [10] = assay: Cytotoxicity against human THP1 cells at 30 uM after 48 hrs by SRB assay; format: functional; conditions: THP-1, 48 h, read-out: GI
MCF7 [11] = assay: Cytotoxicity against human MCF7 cells at 30 uM after 48 hrs by SRB assay; format: functional; conditions: MCF7, 48 h, read-out: GI
A549 [12] = assay: Cytotoxicity against human A549 cells at 30 uM after 48 hrs by SRB assay; format: functional; conditions: A549, 48 h, read-out: GI
PC-3 [13] = assay: Cytotoxicity against human PC3 cells at 30 uM after 48 hrs by SRB assay; format: functional; conditions: PC-3, 48 h, read-out: GI
THP-1 [14] = assay: Cytotoxicity against human THP1 cells after 48 hrs by SRB assay; format: functional, cell-based; conditions: THP-1, 48 h
HEp-2 [15] = assay: Cytotoxicity against human Hep2 cells at 30 uM after 48 hrs by SRB assay; format: functional; conditions: HEp-2, 48 h, read-out: GI
SF-295 [16] = assay: Cytotoxicity against human SF295 cells after 48 hrs by SRB assay; format: functional, cell-based; conditions: SF-295, 48 h
SF-295 [17] = assay: Cytotoxicity against human SF295 cells at 10 uM after 48 hrs by SRB assay; format: functional; conditions: SF-295, 48 h, read-out: GI
A549 [18] = assay: Cytotoxicity against human A549 cells at 10 uM after 48 hrs by SRB assay; format: functional; conditions: A549, 48 h, read-out: GI
HL-60 [19] = assay: Cytotoxicity against human HL60 cells at 50 uM after 48 hrs by SRB assay; format: functional; conditions: HL-60, 48 h, read-out: GI
HCT-15 [20] = assay: Cytotoxicity against human HCT15 cells at 30 uM after 48 hrs by SRB assay; format: functional; conditions: HCT-15, 48 h, read-out: GI
DU-145 [21] = assay: Cytotoxicity against human DU145 cells at 50 uM after 48 hrs by SRB assay; format: functional; conditions: DU-145, 48 h, read-out: GI
PC-3 [22] = assay: Cytotoxicity against human PC3 cells at 50 uM after 48 hrs by SRB assay; format: functional; conditions: PC-3, 48 h, read-out: GI
HCT-15 [23] = assay: Cytotoxicity against human HCT15 cells at 50 uM after 48 hrs by SRB assay; format: functional; conditions: HCT-15, 48 h, read-out: GI
SF-295 [24] = assay: Cytotoxicity against human SF295 cells at 50 uM after 48 hrs by SRB assay; format: functional; conditions: SF-295, 48 h, read-out: GI
HL-60 [25] = assay: Cytotoxicity against human HL60 cells after 48 hrs by SRB assay; format: functional, cell-based; conditions: HL-60, 48 h
HEp-2 [26] = assay: Cytotoxicity against human Hep2 cells at 50 uM after 48 hrs by SRB assay; format: functional; conditions: HEp-2, 48 h, read-out: GI
PC-3 [27] = assay: Cytotoxicity against human PC3 cells at 10 uM after 48 hrs by SRB assay; format: functional; conditions: PC-3, 48 h, read-out: GI
DU-145 [28] = assay: Cytotoxicity against human DU145 cells at 30 uM after 48 hrs by SRB assay; format: functional; conditions: DU-145, 48 h, read-out: GI
THP-1 [29] = assay: Cytotoxicity against human THP1 cells at 50 uM after 48 hrs by SRB assay; format: functional; conditions: THP-1, 48 h, read-out: GI
THP-1 [30] = assay: Cytotoxicity against human THP1 cells at 10 uM after 48 hrs by SRB assay; format: functional; conditions: THP-1, 48 h, read-out: GI
MCF7 [31] = assay: Cytotoxicity against human MCF7 cells at 50 uM after 48 hrs by SRB assay; format: functional; conditions: MCF7, 48 h, read-out: GI
HCT-15 [32] = assay: Cytotoxicity against human HCT15 cells at 10 uM after 48 hrs by SRB assay; format: functional; conditions: HCT-15, 48 h, read-out: GI
PC-3 [33] = assay: Cytotoxicity against human PC3 cells after 48 hrs by SRB assay; format: functional, cell-based; conditions: PC-3, 48 h
A549 [34] = assay: Cytotoxicity against human A549 cells at 50 uM after 48 hrs by SRB assay; format: functional; conditions: A549, 48 h, read-out: GI
A549 [35] = assay: Cytotoxicity against human A549 cells after 48 hrs by SRB assay; format: functional, cell-based; conditions: A549, 48 h
SF-295 [36] = assay: Cytotoxicity against human SF295 cells at 30 uM after 48 hrs by SRB assay; format: functional; conditions: SF-295, 48 h, read-out: GI

`C=C(C)[C@@H]1CC[C@]2(C(=O)O)CC[C@]3(C)[C@H](CC[C@@H]4[C@@]5(C)CC[C@H](OCc6cn(-c7cc(I)ccc7C)nn6)C(C)(C)[C@@H]5CC[C@]43C)[C@@H]12` showed an IC50 (DU-145 [1]) of 39 µM, an inhibition of growth at 10 µM (HL-60 [2]) of 40% and an inhibition of growth at 10 µM (DU-145 [3]) of 24%. It also gave an inhibition of growth at 10 µM (MCF7 [4]) of 30%, an inhibition of growth at 30 µM (HL-60 [5]) of 60% and an IC50 (HEp-2 [6]) of over 50 µM. For the same molecule, the inhibition of growth at 10 µM (HEp-2 [7]) was 7%, the IC50 (HCT-15 [8]) was over 50 µM and the IC50 (MCF7 [9]) was 27 µM. The inhibition of growth at 30 µM (THP-1 [10]) was 56%, the inhibition of growth at 30 µM (MCF7 [11]) was 54% and the inhibition of growth at 30 µM (A549 [12]) was 53%. For the same molecule, the inhibition of growth at 30 µM (PC-3 [13]) was 22%, the IC50 (THP-1 [14]) was 22 µM and the inhibition of growth at 30 µM (HEp-2 [15]) was 14%. For the same molecule, the IC50 (SF-295 [16]) was over 50 µM, the inhibition of growth at 10 µM (SF-295 [17]) was 8% and the inhibition of growth at 10 µM (A549 [18]) was 43%. The inhibition of growth at 50 µM (HL-60 [19]) was 97%, the inhibition of growth at 30 µM (HCT-15 [20]) was 25% and the inhibition of growth at 50 µM (DU-145 [21]) was 65%. For the same molecule, the inhibition of growth at 50 µM (PC-3 [22]) was 4%, the inhibition of growth at 50 µM (HCT-15 [23]) was 34% and the inhibition of growth at 50 µM (SF-295 [24]) was 35%. For the same molecule, the IC50 (HL-60 [25]) was 18 µM, the inhibition of growth at 50 µM (HEp-2 [26]) was 25% and the inhibition of growth at 10 µM (PC-3 [27]) was 5%. For the same molecule, the inhibition of growth at 30 µM (DU-145 [28]) was 41%, the inhibition of growth at 50 µM (THP-1 [29]) was 96% and the inhibition of growth at 10 µM (THP-1 [30]) was 38%. For the same molecule, the inhibition of growth at 50 µM (MCF7 [31]) was 74%, the inhibition of growth at 10 µM (HCT-15 [32]) was 9% and the IC50 (PC-3 [33]) was over 50 µM. For the same molecule, the inhibition of growth at 50 µM (A549 [34]) was 67%, the IC50 (A549 [35]) was 23 µM and the inhibition of growth at 30 µM (SF-295 [36]) was 20%.

In the case of `C=C(C)[C@@H]1CC[C@]2(C(=O)O)CC[C@]3(C)[C@H](CC[C@@H]4[C@@]5(C)CC[C@H](O)C(C)(C)[C@@H]5CC[C@]43C)[C@@H]12` [BETULINIC ACID], the IC50 (DU-145 [1]) is reported as 22 µM, the inhibition of growth at 10 µM (HL-60 [2]) is reported as 35% and the inhibition of growth at 10 µM (DU-145 [3]) is reported as 12%. It also gave an inhibition of growth at 10 µM (MCF7 [4]) of 7%, an inhibition of growth at 30 µM (HL-60 [5]) of 73% and an IC50 (HEp-2 [6]) of 16 µM. It also gave an inhibition of growth at 10 µM (HEp-2 [7]) of 41%, an IC50 (HCT-15 [8]) of 12 µM and an IC50 (MCF7 [9]) of 37 µM. The inhibition of growth at 30 µM (THP-1 [10]) was 69%, the inhibition of growth at 30 µM (MCF7 [11]) was 36% and the inhibition of growth at 30 µM (A549 [12]) was 48%. The inhibition of growth at 30 µM (PC-3 [13]) was 29%, the IC50 (THP-1 [14]) was 20 µM and the inhibition of growth at 30 µM (HEp-2 [15]) was 66%. It also gave an IC50 (SF-295 [16]) of 22 µM, an inhibition of growth at 10 µM (SF-295 [17]) of 11% and an inhibition of growth at 10 µM (A549 [18]) of 20%. For the same molecule, the inhibition of growth at 50 µM (HL-60 [19]) was 98%, the inhibition of growth at 30 µM (HCT-15 [20]) was 80% and the inhibition of growth at 50 µM (DU-145 [21]) was 84%. For the same molecule, the inhibition of growth at 50 µM (PC-3 [22]) was 94%, the inhibition of growth at 50 µM (HCT-15 [23]) was 94% and the inhibition of growth at 50 µM (SF-295 [24]) was 99%. The IC50 (HL-60 [25]) was 17 µM, the inhibition of growth at 50 µM (HEp-2 [26]) was 78% and the inhibition of growth at 10 µM (PC-3 [27]) was 8%. For the same molecule, the inhibition of growth at 30 µM (DU-145 [28]) was 70%, the inhibition of growth at 50 µM (THP-1 [29]) was 99% and the inhibition of growth at 10 µM (THP-1 [30]) was 30%. It also gave an inhibition of growth at 50 µM (MCF7 [31]) of 80%, an inhibition of growth at 10 µM (HCT-15 [32]) of 45% and an IC50 (PC-3 [33]) of 37 µM. It also gave an inhibition of growth at 50 µM (A549 [34]) of 74%, an IC50 (A549 [35]) of 31 µM and an inhibition of growth at 30 µM (SF-295 [36]) of 88%.
